Usually IC50 stands for the concentration at which inhibition is half-maximal. Low readings indicate greater potency, high ones weaker potency.

Among the data in US20260365653A1, “IRREVERSIBLE MUTEGFR INHIBITORS” (Bayer Aktiengesellschaft, priority 2022, published 2026) are IC50 values, retold here.

For assay [1], the target named is T1, mutEGFR (D770_N771insNPG, T790) (Homo sapiens, UniProt P00533, INS770NPG/T790M).
T1 construct: exact insNPG construct not described; in-house EGFR proteins were N-terminal GST fusions from baculovirus/insect cells (borders R669-A1210 given only for WT, insSVD, insASV)
Put plainly: mutEGFR (D770_N771insNPG, T790) kinase assay. The assay is classed as biochemical. The settings on record: Table 2a, D770_N771insNPG. An excerpt: The different EGFR proteins used in the biochemical kinase activity inhibition assays were generated inhouse by expression in insect cells using Baculo Virus system and subsequent purification as described in the following paragraphs.
The cDNAs encoding the various protein sequences from human EGFR human (P00533) were optimized for expression in eukaryotic cells and synthesized by the GeneArt Technology at Life Technologies.

Another assay concerns BA/F3 (insSVD) cells. Put plainly: Ba/F3-EGFR-insSVD cell survival assay (Cell Titer-Glo). The assay is classed as cell-based. The settings on record: Mus musculus, BaF3, 48 h, Table 3a, cell survival, Cell Titer-Glo, with 10 ng/ml EGF, without IL-3. The protocol: Cellular Data Description (WT, insSVD, insSVD T790M) 293T cells from ATCC were transfected with pBABEpuro expression constructs for WT EGFR or EGFR-insSVD, or EGFR-insSVD T790M, and pCL-Eco packaging vector using Fugene-6 transfection reagent from Promega. Plates were incubated at 37° C. for 48 h. Retrovirus was harvested by filtering the media supernatant through a 0.45 μm filter.
Ba/F3 cells purchased from DSMZ were grown in RPMI+10% FBS+10 ng/ml IL-3 and infected with filtered retroviral supernatant at a 1:2 dilution. Polybrene was added to a concentration of 8 μg/mL, plates were spun for 90 min, and incubated for 16 h at 37° C. 2 μg/mL puromycin was added to the infected cells 24 h after infection and cells were continually grown in the presence of puromycin and 10 ng/ml IL-3. Following stably expressing Ba/F3 cell lines were generated: Ba/F3-EGFR-WT, Ba/F3-EGFR-insSVD, Ba/F3-EGFR-insSVD T790M, (Ba/F3-vector-control).
For cell survival assays, Ba/F3 cells were grown to a density of 1-2 million cells per mL, spun down and resuspended in media without IL-3, and replated at a concentration of 200,000-500,000 cells per mL. The cells ectopically expressing WT EGFR, EGFR-insSVD, or EGFR-insSVD T790M were plated with 10 ng/ml Millipore Culture grade EGF. The cells ectopically expressing pBABEpuro empty vector were plated with 10 ng/mL IL-3.
2 days later, cells were plated in 50 µL in a 384 well plate at a concentration of 4000 cells per well for cells assayed in the absence of IL-3 and 2000 cells per well for cells assayed in the presence of IL-3. 100 nL of compound was added to each well using a 100 nL pin head, and plates were incubated at 37° C. for 48 h.
Cell viability was measured by adding 20 μL of Cell Titer-Glo Luminescent Cell Viability Reagent diluted 1:3 in PBS. Plates were sealed with Perkin Elmer Top-Seal, inverted several times to mix, and immediately centrifuged at 1000 rpm for 2 min. Plates were incubated in low light conditions for 8-10 min and luminescence was measured.
(In ATP-based viability assays light output follows the ATP content of the culture.)

In assay [2] the target is T2, mutEGFR (D770_N771insSVD) (Homo sapiens, UniProt P00533, DUP768-770).
T2 construct: GST-EGFR #3 (SVD between D770 and N771); made in house; host or cells: Sf9 insect cells (baculovirus)
As to the kind of experiment: Exon20-Mutant-EGFR (D770_N771insSVD) kinase assay (TR-FRET). The assay is classed as biochemical. The settings on record: mutEGFR (D770_N771insSVD) kinase assay IC50, Table 2a; D770_N771insSVD; 2 mM ATP.

T1 sequence (P00533 with tags, fused parts or gaps INS770NPG/T790M limits assumed): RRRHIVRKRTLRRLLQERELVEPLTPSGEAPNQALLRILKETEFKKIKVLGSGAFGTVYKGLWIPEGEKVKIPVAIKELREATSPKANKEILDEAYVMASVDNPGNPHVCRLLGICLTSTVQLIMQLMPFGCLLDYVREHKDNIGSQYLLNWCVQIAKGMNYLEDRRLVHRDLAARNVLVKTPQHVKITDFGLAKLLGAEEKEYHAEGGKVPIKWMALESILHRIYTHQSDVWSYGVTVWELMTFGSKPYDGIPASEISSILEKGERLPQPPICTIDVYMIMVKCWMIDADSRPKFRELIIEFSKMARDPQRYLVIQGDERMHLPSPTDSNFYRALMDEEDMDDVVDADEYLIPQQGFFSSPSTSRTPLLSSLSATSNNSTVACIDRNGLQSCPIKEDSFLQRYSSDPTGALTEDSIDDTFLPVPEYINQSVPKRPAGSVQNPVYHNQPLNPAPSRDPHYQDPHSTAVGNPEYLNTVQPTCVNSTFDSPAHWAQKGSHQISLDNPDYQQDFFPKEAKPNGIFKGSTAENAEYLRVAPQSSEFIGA
T2 sequence (P00533 with tags, fused parts or gaps DUP768-770): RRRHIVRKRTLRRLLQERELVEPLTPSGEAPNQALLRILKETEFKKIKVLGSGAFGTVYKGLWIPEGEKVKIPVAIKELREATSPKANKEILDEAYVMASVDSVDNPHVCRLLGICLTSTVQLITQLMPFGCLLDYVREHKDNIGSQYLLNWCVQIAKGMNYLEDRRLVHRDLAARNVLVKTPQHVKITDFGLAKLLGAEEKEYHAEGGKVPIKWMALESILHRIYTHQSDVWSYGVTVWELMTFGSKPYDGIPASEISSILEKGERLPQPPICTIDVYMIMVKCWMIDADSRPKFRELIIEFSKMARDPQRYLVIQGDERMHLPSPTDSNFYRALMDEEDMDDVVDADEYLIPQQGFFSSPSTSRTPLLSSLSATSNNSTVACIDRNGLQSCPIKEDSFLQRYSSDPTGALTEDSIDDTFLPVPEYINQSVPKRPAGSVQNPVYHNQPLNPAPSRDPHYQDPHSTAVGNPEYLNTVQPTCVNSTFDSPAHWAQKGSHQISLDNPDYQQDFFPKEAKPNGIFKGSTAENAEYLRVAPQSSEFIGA

As for `CN(C)C/C=C/C(=O)N1Cc2c(-c3ccncc3)c(-c3ccc(F)cc3)nn2C(CC(N)=O)C1` (racemic) [Example 220, 2-[(7RS)-5-[(2E)-4-(dimethylamino)but-2-enoyl]-2-(4-fluorophenyl)-3-(pyridin-4-yl)-4,5,6,7-tetrahydropyrazolo[1,5-a]pyrazin-7-yl]acetamide], the IC50 in assay [1] is 9.66 nM; in the assay on BA/F3 (insSVD) cells it was 5880 nM; in assay [2] it was 4.15 nM.

Consider `CNC(=O)CC1CN(C(=O)/C=C/CN(C)C)Cc2c(-c3ccncc3)c(-c3ccc(F)cc3)nn21` (racemic) [Example 221, 2-[(7RS)-5-[(2E)-4-(dimethylamino)but-2-enoyl]-2-(4-fluorophenyl)-3-(pyridin-4-yl)-4,5,6,7-tetrahydropyrazolo[1,5-a]pyrazin-7-yl]-N-methylacetamide], for which the IC50 is 15.3 nM in assay [1], 2510 nM with BA/F3 (insSVD) cells and 3.69 nM in assay [2].

Turning to `CN(C)C/C=C/C(=O)N1Cc2c(-c3ccncc3)c(-c3ccc(F)cc3)nn2C(CC(=O)N(C)C)C1` (racemic) [Example 222, 2-[(7RS)-5-[(2E)-4-(dimethylamino)but-2-enoyl]-2-(4-fluorophenyl)-3-(pyridin-4-yl)-4,5,6,7-tetrahydropyrazolo[1,5-a]pyrazin-7-yl]-N,N-dimethylacetamide], the IC50 is 13 nM in assay [1], 658 nM with BA/F3 (insSVD) cells and 3.76 nM in assay [2].

`C=CC(=O)N1Cc2c(-c3ccncc3)c(-c3ccc(OC)cc3)nn2CC1C` (racemic) [Example 228, 1-[(6RS)-2-(4-methoxyphenyl)-6-methyl-3-(pyridin-4-yl)-6,7-dihydropyrazolo[1,5-a]pyrazin-5(4H)-yl]prop-2-en-1-one]: the IC50 in assay [1] is 2.2 nM; in the assay with BA/F3 (insSVD) cells it was 44.6 nM; in assay [2], 0.724 nM.

Consider `C=CC(=O)N1Cc2c(-c3ccncc3)c(-c3ccc4cc(F)sc4c3)nn2CC1C` (racemic) [Example 229, 1-[(RS)-2-(2-fluoro-1-benzothiophen-6-yl)-6-methyl-3-(pyridin-4-yl)-6,7-dihydropyrazolo[1,5-a]pyrazin-5(4H)-yl]prop-2-en-1-one], for which the values for the IC50 (in assay [1]; in the assay on BA/F3 (insSVD) cells; in assay [2]) were 0.351 nM, 17.1 nM and 0.188 nM, respectively.

Turning to `C=CC(=O)N1Cc2c(-c3ccncc3)c(-c3ccc(C(F)(F)F)cc3F)nn2CC1C` (racemic) [Example 230, 1-[(6RS)-2-[2-fluoro-4-(trifluoromethyl)phenyl]-6-methyl-3-(pyridin-4-yl)-6,7-dihydropyrazolo[1,5-a]pyrazin-5(4H)-yl]prop-2-en-1-one], the figures for the IC50 (in assay [1]; in the assay on BA/F3 (insSVD) cells; in assay [2]) were 1.04 nM, 15.6 nM and 0.416 nM, respectively.

Take `C=CC(=O)N1Cc2c(-c3ccncc3)c(-c3ccc(OC)cc3F)nn2CC1C` (racemic) [Example 231, 1-[(RS)-2-(2-fluoro-4-methoxyphenyl)-6-methyl-3-(pyridin-4-yl)-6,7-dihydropyrazolo[1,5-a]pyrazin-5(4H)-yl]prop-2-en-1-one]: the IC50 in assay [1] came to 1.1 nM; in the assay on BA/F3 (insSVD) cells, 65.9 nM; in assay [2], 0.502 nM.

`C=CC(=O)N1Cc2c(-c3ccncc3)c(-c3ccc4ccccc4c3)nn2CC1C` (racemic) [Example 232, 1-[(RS)-6-methyl-2-(naphthalen-2-yl)-3-(pyridin-4-yl)-6,7-dihydropyrazolo[1,5-a]pyrazin-5(4H)-yl]prop-2-en-1-one]: the IC50 in assay [1] was 0.164 nM; in the assay on BA/F3 (insSVD) cells, 15.5 nM; in assay [2], 0.116 nM.

For `C=CC(=O)N1Cc2c(-c3ccncc3)c(-c3ccc4cc(Cl)sc4c3)nn2CC1C` (racemic) [Example 233, 1-[(RS)-2-(2-chloro-1-benzothiophen-6-yl)-6-methyl-3-(pyridin-4-yl)-6,7-dihydropyrazolo[1,5-a]pyrazin-5(4H)-yl]prop-2-en-1-one], the IC50 in assay [1] was determined as 0.467 nM; with BA/F3 (insSVD) cells, 48.7 nM; in assay [2], 0.258 nM.

As to `C=CC(=O)N1Cc2c(-c3ccncc3)c(-c3ccc4ccsc4c3)nn2CC1C` (racemic) [Example 234, 1-[(6RS)-2-(1-benzothiophen-6-yl)-6-methyl-3-(pyridin-4-yl)-6,7-dihydropyrazolo[1,5-a]pyrazin-5(4H)-yl]prop-2-en-1-one], the IC50 in assay [1] was found to be 0.331 nM; in the assay on BA/F3 (insSVD) cells it was 122 nM; in assay [2], 0.17 nM.

Consider `CC1Cn2nc(-c3ccc(Cl)cc3F)c(-c3ccncc3)c2CN1C(=O)/C=C/CN(C)C` (racemic) [Example 235, (2E)-1-[(RS)-2-(4-chloro-2-fluorophenyl)-6-methyl-3-(pyridin-4-yl)-6,7-dihydropyrazolo[1,5-a]pyrazin-5(4H)-yl]-4-(dimethylamino)but-2-en-1-one], for which the IC50 in assay [1] amounted to 0.592 nM; in the assay with BA/F3 (insSVD) cells, 24.1 nM; in assay [2], 0.18 nM.

Consider `CC1Cn2nc(-c3ccc4ccsc4c3)c(-c3ccncc3)c2CN1C(=O)/C=C/CN(C)C` (racemic) [Example 236, (2E)-1-[(RS)-2-(1-benzothiophen-6-yl)-6-methyl-3-(pyridin-4-yl)-6,7-dihydropyrazolo[1,5-a]pyrazin-5(4H)-yl]-4-(dimethylamino)but-2-en-1-one], for which the IC50 in assay [1] came to 0.289 nM; in the assay with BA/F3 (insSVD) cells it was 256 nM; in assay [2], 0.181 nM.

Consider `C=C(F)C(=O)N1Cc2c(-c3ccncc3)c(-c3ccc(Cl)cc3F)nn2CC1C` (racemic) [Example 237, 1-[(RS)-2-(4-chloro-2-fluorophenyl)-6-methyl-3-(pyridin-4-yl)-6,7-dihydropyrazolo[1,5-a]pyrazin-5(4H)-yl]-2-fluoroprop-2-en-1-one], for which the IC50 was 9.96 nM in assay [1], 126 nM in the assay on BA/F3 (insSVD) cells and 2.94 nM in assay [2].

In the case of `C=C(F)C(=O)N1Cc2c(-c3ccncc3)c(-c3ccc4ccsc4c3)nn2CC1C` (racemic) [Example 238, 1-[(RS)-2-(1-benzothiophen-6-yl)-6-methyl-3-(pyridin-4-yl)-6,7-dihydropyrazolo[1,5-a]pyrazin-5(4H)-yl]-2-fluoroprop-2-en-1-one], the values for the IC50 (in assay [1]; with BA/F3 (insSVD) cells; in assay [2]) were 2.21 nM, 68.7 nM and 1.57 nM, respectively.

On to `C=CC(=O)N1CCn2nc(-c3ccc(F)cc3)c(-c3ccncc3)c2C1C` (racemic) [Example 239, 1-[(RS)-2-(4-fluorophenyl)-4-methyl-3-(pyridin-4-yl)-6,7-dihydropyrazolo[1,5-a]pyrazin-5(4H)-yl]prop-2-en-1-one], for which the 50% inhibitory concentration (IC50) in assay [1] came out at 4.74 nM; with BA/F3 (insSVD) cells, 38.7 nM; in assay [2] it was 1.39 nM.

Consider `C=CC(=O)N1CCn2nc(-c3ccc(Cl)cc3F)c(-c3ccncc3)c2C1C` (racemic) [Example 240, 1-[(RS)-2-(4-chloro-2-fluorophenyl)-4-methyl-3-(pyridin-4-yl)-6,7-dihydropyrazolo[1,5-a]pyrazin-5(4H)-yl]prop-2-en-1-one], for which the results for the concentration for half-maximal inhibition (IC50) (in assay [1]; in the assay on BA/F3 (insSVD) cells; in assay [2]) were 1.5 nM, 54 nM and 0.437 nM, respectively.

`C=CC(=O)N1CCn2nc(-c3ccc(OC)cc3)c(-c3ccncc3)c2C1C` (racemic) [Example 241, 1-[(RS)-2-(4-methoxyphenyl)-4-methyl-3-(pyridin-4-yl)-6,7-dihydropyrazolo[1,5-a]pyrazin-5(4H)-yl]prop-2-en-1-one]: the concentration for half-maximal inhibition (IC50) in assay [1] came out at 12.3 nM; with BA/F3 (insSVD) cells it was 77.1 nM; in assay [2], 3.88 nM.

`C=CC(=O)N1CCn2nc(-c3ccc4sccc4c3)c(-c3ccncc3)c2C1C` (racemic) [Example 242, 1-[(RS)-2-(1-benzothiophen-5-yl)-4-methyl-3-(pyridin-4-yl)-6,7-dihydropyrazolo[1,5-a]pyrazin-5(4H)-yl]prop-2-en-1-one]: the IC50 was 0.839 nM in assay [1], 48.2 nM in the assay with BA/F3 (insSVD) cells and 0.445 nM in assay [2].
